Holding throughout (test): Steady-state hydrolysis kinetics
Holding throughout (assay type): biochemical, Escherichia coli

In test [1] the target is T1, CMY-2 variant Q120K_N346Y (Klebsiella pneumoniae, UniProt Q48434, N366Y/Q140K).
T1 construct: all CMY-2 variant genes encoding the mature enzyme without a signal peptide were cloned into the protein expression plasmid vector pET-30b; made in house; host or cells: E. coli BL21 (DE3), pET-30b
Particulars: substrate 100 µM, 100–200 nM enzyme. From the text: (§1) We tested the enzymes, CMY-2, two single mutants V211S (CMY-42) and N346Y, three double mutants A114E_N346Y, Q120K_N346Y, and V211S_N346Y, and the quadruplet mutant CMY-185 to elucidate the impact on the kinetic properties resulting from the four amino acid substitutions present in CMY-185 compared with CMY-2 ([8]). The steady-state kinetic parameters kcat and Km (or Ki app) for nitrocefin, cephalothin, ceftazidime, and cefiderocol and the inhibition parameters Ki app, k2/K, k−2, and koff for avibactam are summarized in Table 1. During the hydrolysis of nitrocefin, we observed the reduction of the initial velocity at concentrations above 50 µM particularly for the CMY-2 variants harboring the N346Y substitution. As this could have represented substrate inhibition, we then determined the kinetics parameters for nitrocefin using the Haldane equation ([16]). […] In addition, during the hydrolysis of cefiderocol by CMY-185, the initial velocities at a concentration range of 3.7–59.4 µM were similar.
(§2) The steady-state kinetics were carried out on a UV-Visible spectrometer (UV-1280, Shimadzu, Japan) in PBS pH 7.2 at 25°C with a constant amount of enzyme and varying concentrations of the substrates. We tested nitrocefin, cephalothin, ceftazidime, and cefiderocol as the substrates and avibactam as the inhibitor. The steady-state kinetics parameters Km and kcat were determined with the Michaelis-Menten equation. For poorly hydrolyzed substrates, the Km value was assumed to be the competitive inhibition constant (Ki app) value according to previous studies ([17], [19]). Inhibition parameter values of Ki app, k2/K, k−2, and koff for avibactam were determined using a method as described previously ([33]). Cephalothin was used as the reporter substrate for competitive inhibition experiments, and its concentration was fixed at 100 µM. The enzyme concentration was 1–10 nM. Inverse steady-state initial velocities were plotted against the concentration of the competitive inhibitor agents, such as ceftazidime, cefiderocol, and avibactam. The data were analyzed by linear regression analysis of the Dixon plot, and Ki app (observed) was determined by dividing the y-intercept value by the slope of the line. It was then corrected to account for the affinity of cephalothin for each enzyme using the Equation (1): […]

Test [2] addresses T2, CMY-2 variant V211S_N346Y (Klebsiella pneumoniae, UniProt Q48434, N366Y/V231S).
T2 construct: all CMY-2 variant genes encoding the mature enzyme without a signal peptide were cloned into the protein expression plasmid vector pET-30b; made in house; host or cells: E. coli BL21 (DE3), pET-30b
Text: as §1, §2

Another test deals with T3, CMY-185 (Klebsiella pneumoniae, UniProt Q48434, A134E/N366Y/Q140K/V231S).
T3 construct: all CMY-2 variant genes encoding the mature enzyme without a signal peptide were cloned into the protein expression plasmid vector pET-30b; made in house; host or cells: E. coli BL21 (DE3), pET-30b
Text: as §1, §2

Another test has as its target T4, V211S (CMY-42) (Klebsiella pneumoniae, UniProt Q48434, V231S).
T4 construct: all CMY-2 variant genes encoding the mature enzyme without a signal peptide were cloned into the protein expression plasmid vector pET-30b; made in house; host or cells: E. coli BL21 (DE3), pET-30b
Particulars: PBS pH 7.2, 25°C.
Text: as §1, §2

What is called Km is the substrate concentration at which the rate is half of its maximum. What is called kcat is the number of substrate molecules converted per active site and unit of time at saturation. Turning to `CC(C)(O/N=C(\C(=O)N[C@@H]1C(=O)N2C(C(=O)[O-])=C(C[N+]3(CCNC(=O)c4ccc(O)c(O)c4Cl)CCCC3)CS[C@H]12)c1csc(N)n1)C(=O)O` [Cefiderocol, cefiderocol], the hydrolysis entry in test [1] is reported as “no apparent hydrolysis”. For the same compound, in test [2] (V211S_N346Y compared to V211S), the “fold lower Km” value was determined as 10 fold. Also, the Km in test [2] (V211S_N346Y, PBS pH 7.2, 25°C) is 6.9 ± 1.5 µM; at V211S (CMY-42), 68 ± 11 µM. Moreover, the kcat was 0.049 ± 0.003 s⁻¹ in test [2] (V211S_N346Y, PBS pH 7.2, 25°C); 6.9 × 10^−3 ± 0.4 ×10^−3 a s^−1 at CMY-185 (determined with steady-state velocities (cefiderocol 3.7–59.4 µM) and Ki app assumed to Km); 0.034 ± 0.002 s⁻¹ on V211S (CMY-42); “(3.4 ± 0.2) × 10^−2 s^−1” at V211S (CMY-42) (listed as cefiderocol). The kcat/Ki app at CMY-185 (kcat/Ki app shown in the kcat/Km line) is 3.0 × 10^−2 ± 0.2 × 10^−2 b µM^−1 s^−1.

For the origin of these results see PMC10865806, “Structural insights into the molecular mechanism of high-level ceftazidime–avibactam resistance conferred by CMY-185” (mBio, 2024).
